In US20260193180A1, “AUTOPHAGY INDUCING COMPOUNDS AND USES THEREOF” (SAMSARA THERAPEUTICS INC., priority 2022, published 2026):

How the values were obtained:
[1] = Bioavailability / brain exposure in CD1 mice; format: in vivo; settings: dose of 30 mg/kg
Experimental: The compounds have good properties for oral dosing and readily cross the blood brain barrier. For example, in CD1 mice, Compound 9 has a maximum concentration in brain plasma of 5067 ng/ml after 30 minutes at a dose of 30 mg/kg. Compound 12 has a maximum concentration in brain plasma of 5853 ng/ml after 8 hours at a dose of 30 mg/kg.

[2] = test system: Human osteosarcoma U2OS cells; assay: Acidic vesicle formation (lysosome/autolysosome staining, LysoView 633 / LysoTracker Deep Red), stimulation of autophagy; format: cell-based; settings: 24 hours; for activation at 0.8 µM: read-out: Activity (percentage increase in acidic vesicle formation over the DMSO-treated control); for activation at 10 µM: read-out: increase in acidic vesicle formation over the DMSO-treated control
Summary of the method: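 U2OS cells treated with compound for 24 h, then stained 45 min at 37° C with 1× LysoView 633 or 50 nM LysoTracker Deep Red plus Hoechst nuclei. Live-cell fluorescence images (Cy5/DAPI) scored for acidic vesicle formation relative to DMSO control.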

[3] = test system: C57BL/6JRj mice injured by intra-nigral injections of alpha-synuclein and CBE; assay: Mouse model of Parkinson's disease (intra-nigral alpha-synuclein protofibrils plus CBE); format: in vivo; settings: 30 mg/kg per os on the first day, then 10 mg/kg per os once a day
Description: This model (run by Neuro-Sys SAS, France) uses C57BL/6JRj mice injured by intra-nigral injections of a solution containing protofibrils of alpha-synuclein (α-syn, precisely quantified by automatic Western Blot) and combined with pharmacological inhibition of GBA by conduritol B epoxide (CBE), in aged mice. The model mimics the main pathologies of PD: loss of dopaminergic neurons in the substantia nigra, neuroinflammation, deficits in motor coordination and synucleinopathy (α-syn aggregation). Any substance with positive effects in this model may be useful as a new therapeutic agent for the treatment or prevention of PD.
• Type of animal: C57BL/6JRj (Male) • Age: 18 months old • Supplier: Janvier Labs • Animal number: 10 mice per group • Acclimation and clinical signs: Animals arrived on site 7 days (one week) before the experiment to allow optimal acclimation.
Overview: CBE was administered along with the test compounds, starting on the day of the stereotaxic injections of the α-syn oligomer preparation.
Test compounds at specific concentrations (see below) were administered per os (gavage or drinking water). • Test compound treatment: The test compounds were solubilized (vehicle=water), aliquoted and stored at −20° C. Aliquots were thawed overnight at 4° C. and given once a day. Treatment started on the day of the stereotaxic injections of α-syn preparation (Day 0). Treatment was administrated until the last day of the experiment (Day 28; =day of dissection). • CBE dose and administration: 50 mg/kg, Intraperitoneal (i.p.), twice a day. • CBE treatment: Administration of CBE (vehicle=saline [NaCl 0.9%] started on the day of the stereotaxic injections of α-syn preparation (Day 0). Treatment was administrated until the last day of the experiment (Day 28; =day of dissection), • Untreated control: vehicle (saline; i.p.) administered twice a day, • Stereotaxic injections of α-syn oligomers: Human α-syn peptide (stock at 69 μM in water at −20° C.) was reconstituted at 50 μM in NaCl, 0.9% (final concentration). All mice in compound treated groups were subjected to surgery and received 2.5 μL of α-syn solution. Mice were anesthetized by isoflurane (4%, for induction), in an induction chamber coupled with a vaporizer and to an oxygen concentrator. Mice were placed on the stereotaxic frame. Anesthesia was maintained by isoflurane (2%) with a face mask coupled to the isoflurane vaporizer and oxygen concentrator machine. The skull was exposed and holes were drilled. The α-syn preparation was bilaterally injected into the SNpc, at the following coordinates: A-P, −0.3 mm; M-L, +0.12 mm; D-V, −0.45 mm. Depth of anesthesia and rectal temperature were verified every 5 minutes. After surgery, mice were allowed to recover before being placed back in the cage.
• i) Body mass • ii) Assessment of motor coordination: bar test and grid walking test • iii) Dopaminergic Tyrosine hydroxylase (TH)-positive neuron survival in the substantia nigra pars compacta (SNpc), i.e. a measure of the number of TH neurons in the SNpc • iv) α-syn area in TH positive neurons (a measure of the degree of aggregation of α-syn in TH positive neurons, in the SNpc)
• Overall: For overall evaluation and body mass, mice were observed daily, and body mass was monitored prior to drug administration. • Assessment of motor coordination: bar test.
In the third week (Week 3) post-surgery, motor coordination of the mice was assessed with the bar test. The principle of the test is based on the capacity of the mice to cross a horizontal bar connected to a platform (18 mm of diameter, 60 cm long). The test requires good coordination between front and hindlimbs, and good balance. Mice are placed at one extremity of the bar and need to reach a platform located at the other side of the bar. Motor coordination was studied after two training sessions, one and two days before the test. Three sessions were recorded by a video camera system. […]

Structure (SMILES) | maximum concentration in brain plasma [1] [ng/mL] | time of maximum concentration in brain plasma [1] [min] | activation at 0.8 µM [2] [%] | activation at 10 µM [2] [%] | bar test: decrease in the mean time required to cross the bar compared to the α-syn/CBE injured group ([3]; week 3) [%] | bar test: reduction in the mean number of steps required to cross the bar compared to the α-syn/CBE injured group ([3]; week 3) [%] | bar test: reduction in the number of misplaced steps (failed strides) compared to the α-syn/CBE injured group ([3]; week 3) [%] | decrease in the aggregation of α-syn in TH neurons (α-syn area) compared to the α-syn/CBE injured group ([3]; week 4) [%] | grid walking test: increase in the total distance travelled during the test ([3]; week 4) [%] | grid walking test: reduction in the mean number of failures per meter (number of missed steps) ([3]; week 4) [%] | increase in the number of dopaminergic TH positive neurons in the SNpc compared to the α-syn/CBE injured group ([3]; week 4) [%]
CCOc1ccc(Cl)cc1CN1CCN[C@@H](C)C1.Cl [Compound 9, (S)-1-(5-chloro-2-ethoxybenzyl)-3-methylpiperazine hydrochloride] | 5067 | 30 | 10 to 30 | ≥ 25 |  |  |  |  |  |  | 
CCOc1ccc(CN2CC[C@@H](CN)C2)cc1Cl.Cl [Compound 30, (S)-(1-(3-chloro-4-ethoxybenzyl)pyrrolidin-3-yl)methanamine hydrochloride] |  |  | > 100 | ≥ 25 | 25 | 7 | 19 | 30 | 36 | 28 | 57
